Laboratory results reported in US9593149B2, “Amylin and calcitonin receptor agonist” (Novo Nordisk A/S, priority 2014, dated 2017).
Numbered stars: 1 amine (or outer) side, 2 acyl side, 3 side chain; on linkers, the order of the positions; unused ones are H or OH. Peptide text beside a SMILES is read from it. * marks the point of attachment. C20 diacid = O=C(O)CCCCCCCCCCCCCCCCCCC(=O)*; C18 diacid = O=C(O)CCCCCCCCCCCCCCCCC(=O)*; γGlu = O=C(O)[C@H](CCC(=O)[*:2])N[*:1]; C12 diacid = O=C(O)CCCCCCCCCCC(=O)*

Key:
[1] = Assay (IV) determination of solubility; format: physicochemical
Procedure: Assay (IV)—Determination of Solubility
The mimylin peptide was dissolved in water at ˜500 nmol/ml and mixed 1:1 with a series of buffers (100 mM glycylglycine pH 3.0, 100 mM glycylglycine pH 4.0, 100 mM glycylglycine pH 5.0, 100 mM bistrispropane pH 6.0, 100 mM bistrispropane pH 6.5, 100 mM bistrispropane pH 7.0, 100 mM bistrispropane pH 7.5, 100 mM bistrispropane pH 8.0).

[2] = Assay (IX) pK, T½ in mini-pig; format: in vivo, Göttingen mini-pigs; conditions: i.v.
Procedure: Assay (IX)—pK—Determination of T½ in Mini-Pig
Pharmacokinetic (PK) studies in Göttingen mini-pigs were conducted in order to determine the T½ of the mimylin compound according to the Examples as indicated after i.v. administration.
T½ values of the amylin analogues of the invention is determined by pharmacokinetic studies in female Göttingen mini-pigs from Ellegaard Göttingen Minipigs ApS and the principles of laboratory animal care are followed.
An acclimatisation period of approximately 6-10 days was allowed before the animals entered the study. At start of the acclimatisation period the mini-pigs were about 5 to 12 months old and in the weight range of 15-35 kg. The mini-pigs had two central venous catheters inserted which were used for blood sampling.
The studies were conducted in an animal room which was illuminated to give a cycle of approximately 12 hours light and 12 hours darkness. The animals were housed individually. The animals had free access to domestic quality drinking water during the study, and no food restrictions applied for PK studies. The animals were weighed on arrival and on the days of dosing.
In the present studies the test substances were administered intravenously in approximately 5 nmol/kg dose. The animals received a single intravenous injection in one central venous catheter and blood sampling was performed from the other catheter, where possible. Each test substance was given to typically three but in some cases two or four animals.
A full plasma concentration-time profile, employing 12-16 sampling points, was obtained from each animal. In example blood samples were collected according to the following schedule:
After Intravenous Administration:
Pre-dose (0), 0.5, 1, 2, 4, 6, 8, 12, 24, 48, 72, 96, 120, 168 and 240 hours after injection. In some cases also additional blood samples up to 288 hours post injection were taken.
At each sampling time, 0.5 to 2 ml of blood was drawn from each animal. The blood samples were taken via the central venous catheter.
The 0.8 mL blood samples were collected into EDTA test tubes (8 mM EDTA). Blood samples were kept on ice for max 20 min. before centrifugation. Plasma was separated using centrifugation (i.e. at 4° C., 10 min., 2000G) and was immediately transferred to Micronic tubes on dry ice. Approximately 200 μl plasma was transferred to each Micronic tube. The plasma was stored at −20° C. until assayed. The plasma samples were assayed for the content of compound using LCMS.
The plasma concentration-time profiles were analysed by a non-compartmental pharmacokinetic analysis (NCA) using Phoenix WinNonlin 6.3 (Pharsight Inc., Mountain View, Calif., USA). NCA was performed using the individual plasma concentration-time profiles from each animal. T½ is the terminal half-life=In2/λz and was determined from λz, the first order rate constant associated with the terminal (log-linear) portion of the curve, estimated by linear regression of time vs. log concentration.
MS-Method for Amylin and Mimylin Quantification
40 μl plasma is diluted with 120 μl 66.67% EtOH+1% HCOOH and mixed. Centrifuged for 20 min. at 13000 rpm, 4° C. The supernatant is analyzed by an LC-MS method on a Sciex API 3000 and quantitated with a standard made up in plasma

Compound | Solubility ([1]; pH 3.0) | Solubility ([1]; pH 4.0) | Solubility ([1]; pH 5.0) | Solubility ([1]; pH 6.0) | Solubility ([1]; pH 6.5) | Solubility ([1]; pH 7.0) | Solubility ([1]; pH 7.5) | Solubility ([1]; pH 8.0) | PK mini pig iv T½ [2] [h] | solubility at 18 h ([1]; bistrispropane buffer, pH 6.5) [µM]
CC(C)C[C@H](NC(=O)[C@H](C)NC(=O)[C@H](C)NC(=O)[C@@H](NC(=O)[C@H](CO)NC(=O)[C@H](CC(C)C)NC(=O)[C@H](CCC(=O)O)NC(=O)[C@H](CO)NC(=O)[C@H](C)NC(=O)CC[C@H](NC(=O)CCCCCCCCCCCCCCCCCCC(=O)O)C(=O)O)[C@@H](C)O)C(=O)NCC(=O)N[C@@H](CCCNC(=N)N)C(=O)N[C@@H](CC(C)C)C(=O)N[C@@H](CO)C(=O)N[C@@H](C)C(=O)N[C@@H](CCC(=O)O)C(=O)N[C@@H](CC(C)C)C(=O)N[C@@H](Cc1cnc[nH]1)C(=O)N[C@@H](CCC(=O)O)C(=O)N[C@@H](CC(C)C)C(=O)N[C@@H](C)C(=O)N[C@H](C(=O)N[C@@H](CC(C)C)C(=O)N1CCC[C@H]1C(=O)N[C@@H](CCCNC(=N)N)C(=O)N[C@H](C(=O)N[C@@H](CCC(=O)O)C(=O)N[C@H](C(=O)NCC(=O)N[C@@H](CO)C(=O)NCC(=O)N[C@@H](CO)C(=O)N1CCC[C@H]1C(N)=O)[C@@H](C)O)[C@@H](C)O)[C@@H](C)O [Ex. #40, [N-terminal(C20 diacid-gGlu), des1, 30S, 31G]mimylin] ({C20 diacid-γGlu}-ASELSTAALGRLSAELHELATLPRTETGSGSP-NH2) | ≧200 μM | ≧200 μM | ≧200 μM | ≧200 μM | ≧200 μM | ≧200 μM | ≧200 μM | ≧200 μM | 171 | 
CC(C)C[C@H](NC(=O)[C@H](C)NC(=O)[C@H](C)NC(=O)[C@@H](NC(=O)[C@H](CO)NC(=O)[C@H](CC(C)C)NC(=O)[C@H](CCC(=O)O)NC(=O)[C@H](CO)NC(=O)[C@H](C)NC(=O)[C@H](CCC(=O)O)NC(=O)CCCCCCCCCCC(=O)O)[C@@H](C)O)C(=O)NCC(=O)N[C@@H](CCCNC(=N)N)C(=O)N[C@@H](CC(C)C)C(=O)N[C@@H](CO)C(=O)N[C@@H](C)C(=O)N[C@@H](CCC(=O)O)C(=O)N[C@@H](CC(C)C)C(=O)N[C@@H](Cc1cnc[nH]1)C(=O)N[C@@H](CCC(=O)O)C(=O)N[C@@H](CC(C)C)C(=O)N[C@@H](C)C(=O)N[C@H](C(=O)N[C@@H](CC(C)C)C(=O)N1CCC[C@H]1C(=O)N[C@@H](CCCNC(=N)N)C(=O)N[C@H](C(=O)N[C@@H](CCC(=O)O)C(=O)N[C@H](C(=O)NCC(=O)N1CCC[C@H]1C(=O)N[C@@H](CCC(=O)O)C(=O)N[C@@H](CO)C(=O)N1CCC[C@H]1C(N)=O)[C@@H](C)O)[C@@H](C)O)[C@@H](C)O [compound 6, [N-terminal(C12 diacid)]mimylin] ({C12 diacid}-EASELSTAALGRLSAELHELATLPRTETGPESP-NH2) | ≧200 μM | ≧200 μM | ≧200 μM | ≧200 μM |  | ≧200 μM | ≧200 μM | ≧200 μM | 1 | ≥ 200
CC(C)C[C@H](NC(=O)[C@H](CCC(=O)O)NC(=O)[C@H](Cc1cnc[nH]1)NC(=O)[C@H](CC(C)C)NC(=O)[C@H](CCC(=O)O)NC(=O)[C@H](C)NC(=O)[C@H](CO)NC(=O)[C@H](CC(C)C)NC(=O)[C@H](CCCNC(=N)N)NC(=O)CNC(=O)[C@H](CC(C)C)NC(=O)[C@@H](NC(=O)[C@H](C)NC(=O)[C@@H](NC(=O)[C@H](CO)NC(=O)[C@H](CC(C)C)NC(=O)[C@H](CCC(=O)O)NC(=O)[C@H](CO)NC(=O)[C@H](C)NC(=O)[C@H](CCC(=O)O)NC(=O)CCCCCCCCCCCCCCCCC(=O)O)[C@@H](C)O)C(C)C)C(=O)N[C@@H](C)C(=O)N[C@H](C(=O)N[C@@H](CC(C)C)C(=O)N1CCC[C@H]1C(=O)N[C@@H](CCCNC(=N)N)C(=O)N[C@H](C(=O)N[C@@H](CCC(=O)O)C(=O)N[C@H](C(=O)NCC(=O)N1CCC[C@H]1C(=O)N[C@@H](CCC(=O)O)C(=O)N[C@@H](CO)C(=O)N1CCC[C@H]1C(N)=O)[C@@H](C)O)[C@@H](C)O)[C@@H](C)O [compound 9, [N-terminal(C18 diacid), 9V]mimylin] ({C18 diacid}-EASELSTAVLGRLSAELHELATLPRTETGPESP-NH2) | ≧200 μM | ≧200 μM | ≧200 μM | ≧200 μM | ≧200 μM | ≧200 μM | ≧200 μM | ≧200 μM | 90 | 

Next, values leading:

Solubility ([1]; pH 3.0) | Solubility ([1]; pH 4.0) | Solubility ([1]; pH 5.0) | Solubility ([1]; pH 6.0) | Solubility ([1]; pH 6.5) | Solubility ([1]; pH 7.0) | Solubility ([1]; pH 7.5) | Solubility ([1]; pH 8.0) | PK mini pig iv T½ [2] [h] | solubility at 18 h ([1]; bistrispropane buffer, pH 6.5) [µM] | Compound
≧200 μM | ≧200 μM | ≧200 μM | ≧200 μM | ≧200 μM | ≧200 μM | ≧200 μM | ≧200 μM | 86 |  | CC(C)C[C@H](NC(=O)[C@H](C)NC(=O)[C@H](C)NC(=O)[C@@H](NC(=O)[C@H](CO)NC(=O)[C@H](CC(C)C)NC(=O)[C@H](CCC(=O)O)NC(=O)[C@H](CO)NC(=O)[C@H](C)NC(=O)[C@H](CCC(=O)O)NC(=O)CCCCCCCCCCCCCCCCC(=O)O)[C@@H](C)O)C(=O)NCC(=O)N[C@@H](CCCNC(=N)N)C(=O)N[C@@H](CC(C)C)C(=O)N[C@@H](CO)C(=O)N[C@@H](C)C(=O)N[C@@H](CCC(=O)O)C(=O)N[C@@H](CC(C)C)C(=O)N[C@@H](C)C(=O)N[C@@H](CCC(=O)O)C(=O)N[C@@H](CC(C)C)C(=O)N[C@@H](C)C(=O)N[C@H](C(=O)N[C@@H](CC(C)C)C(=O)N1CCC[C@H]1C(=O)N[C@@H](CCCNC(=N)N)C(=O)N[C@H](C(=O)N[C@@H](CCC(=O)O)C(=O)N[C@H](C(=O)NCC(=O)N1CCC[C@H]1C(=O)N[C@@H](CCC(=O)O)C(=O)N[C@@H](CO)C(=O)N1CCC[C@H]1C(N)=O)[C@@H](C)O)[C@@H](C)O)[C@@H](C)O [compound 13, [N-terminal(C18 diacid), 18A]mimylin] ({C18 diacid}-EASELSTAALGRLSAELAELATLPRTETGPESP-NH2)
≧200 μM | ≧200 μM | ≧200 μM | ≧200 μM | ≧200 μM | ≧200 μM | ≧200 μM | ≧200 μM | 118 |  | CC(C)C[C@H](NC(=O)[C@H](C)NC(=O)[C@H](C)NC(=O)[C@@H](NC(=O)[C@H](CO)NC(=O)[C@H](CC(C)C)NC(=O)[C@H](CCC(=O)O)NC(=O)[C@H](CO)NC(=O)[C@H](C)NC(=O)[C@H](CCC(=O)O)NC(=O)CCCCCCCCCCCCCCCCC(=O)O)[C@@H](C)O)C(=O)NCC(=O)N[C@@H](CCCNC(=N)N)C(=O)N[C@@H](CC(C)C)C(=O)N[C@@H](CO)C(=O)N[C@@H](C)C(=O)N[C@@H](CCC(=O)O)C(=O)N[C@@H](CC(C)C)C(=O)N[C@@H](Cc1cnc[nH]1)C(=O)N[C@@H](CCC(=O)O)C(=O)N[C@@H](CC(C)C)C(=O)N[C@@H](C)C(=O)N[C@H](C(=O)N[C@@H](CC(C)C)C(=O)N1CCC[C@H]1C(=O)N[C@@H](CCCNC(=N)N)C(=O)N[C@H](C(=O)N[C@@H](CCC(=O)O)C(=O)N[C@H](C(=O)NCC(=O)N[C@@H](CO)C(=O)NCC(=O)N[C@@H](CO)C(=O)N1CCC[C@H]1C(N)=O)[C@@H](C)O)[C@@H](C)O)[C@@H](C)O [compound 21, [N-terminal(C18 diacid), 30S, 31G]mimylin] ({C18 diacid}-EASELSTAALGRLSAELHELATLPRTETGSGSP-NH2)
